This is an account of results in patent US20260139017A1, “COMPOSITIONS AND METHODS USING REELIN IN ALZHEIMER'S DISEASE” (The General Hospital Corporation, priority 2022, published 2026).

In this experiment the target is T1, NRP1 (Homo sapiens, UniProt O14786).
T1 construct: purchased R&D 3870-N1-025
T1 sequence (O14786 22-644 isoform O14786-2 limits assumed): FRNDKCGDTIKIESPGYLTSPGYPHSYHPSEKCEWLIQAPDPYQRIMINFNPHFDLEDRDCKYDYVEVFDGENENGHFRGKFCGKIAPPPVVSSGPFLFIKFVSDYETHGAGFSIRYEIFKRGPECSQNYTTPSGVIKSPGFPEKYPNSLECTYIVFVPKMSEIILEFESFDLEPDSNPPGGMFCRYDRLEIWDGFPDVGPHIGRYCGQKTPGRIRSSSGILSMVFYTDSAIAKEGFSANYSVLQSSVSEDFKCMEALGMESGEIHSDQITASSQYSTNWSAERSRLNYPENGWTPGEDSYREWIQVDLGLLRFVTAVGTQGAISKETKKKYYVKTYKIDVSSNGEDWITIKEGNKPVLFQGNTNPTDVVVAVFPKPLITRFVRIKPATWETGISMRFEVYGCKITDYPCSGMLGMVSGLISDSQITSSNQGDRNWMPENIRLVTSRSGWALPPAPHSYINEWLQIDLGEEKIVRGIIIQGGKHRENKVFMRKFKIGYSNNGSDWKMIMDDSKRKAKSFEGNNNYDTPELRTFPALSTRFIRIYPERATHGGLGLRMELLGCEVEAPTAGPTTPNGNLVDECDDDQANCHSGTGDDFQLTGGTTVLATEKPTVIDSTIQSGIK
Put plainly: Bio-layer interferometry (BLI) of CTR-RELN-NRP-1 interactions. Type of experiment: binding. The following applies: Fc-fusion peptides. As to the method:
Bio-layer interferometry (BLI) was additionally used to assess NRP1-protein kinetics at 30° C. and 1000 rpm agitation. 1 mg/mL NRP1 (R&D 3870-N1-025) was biotinylated at a 1:2 molar ratio, desalted, and immobilized on the SA biosensor tip (Pall ForteBio) surface. This was followed by 1) 180 seconds baseline buffer diluent, 2) loading of the ligand (NRP1), 3) 180 seconds baseline buffer diluent, 4) 240 seconds association (analyte), and 5) 300 seconds disassociation in assay buffer. Assay buffer: SD Buffer (pH7.4 PBS, 0.05% tween20, 0.01% BSA).
The experimental data were fit with the 1:1 binding model and analyzed with global fitting using Octet Data Analysis software to calculate KD.
Bio-layer interferometry (BLI) was used to assess NRP1-protein kinetics at 30° C. and 1000 rpm agitation using previously published methods. 1 mg/mL NRP1 (R&D 3870-N1-025) was biotinylated at a 1:2 molar ratio, desalted, and immobilized on the SA biosensor tip (Pall ForteBio) surface. This was followed by 1) 180 seconds baseline buffer diluent, 2) loading of the ligand (NRP1), 3) 180 seconds baseline buffer diluent, 4) 240 seconds association (analyte), and 5) 300 seconds disassociation in assay buffer. Assay buffer: SD Buffer (pH7.4 PBS, 0.05% tween20, 0.01% BSA).

With “RKQNYMMNFSRQHGLRRFYNRRRRSLRRYP [CTR-RELN H3447R]”, the “affinity for NRP1 relative to WT” value is 10 fold.
